Test results: ChEMBL document CHEMBL4393659, “Insights into the chemistry and therapeutic potential of furanones: A versatile pharmacophore” (Eur J Med Chem, 2019)
Values after ≈ are worked out from the molar mass of the structure shown.

Key:
Candida albicans [1] = experiment: Antifungal activity against Candida albicans assessed as inhibition of fungal cell growth incubated for 72 hrs by disk diffusion method relative to control; type: functional
[2] = system: Mycobacterium tuberculosis; experiment: Antimycobacterial activity against Mycobacterium tuberculosis H37Rv ATCC 27294 at 0.19 to 100 ug/ml incubated for 4 days by microplate alamar blue assay; type: functional, organism-based; conditions: H37Rv ATCC 27294, 96 h
MAC16 [3] = experiment: Antiproliferative activity against mouse MAC16 cells assessed as reduction in cell viability incubated for 3 days by MTT assay; type: functional, cell-based; conditions: MAC16, 72 h
MAC13 = experiment: Antiproliferative activity against mouse MAC13 cells assessed as reduction in cell viability incubated for 3 days by MTT assay; type: functional, cell-based; conditions: MAC13, 72 h
MAC16 [4] = experiment: Antitumor activity in mouse MAC16 cells xenografted in NMRI mouse assessed as reduction in tumor weight administered after 2 days of transplantation and measured after 7 day; type: functional
Liver = experiment: Antioxidant activity in rat liver microsomes assessed as reduction in ferrous salt/ascorbic acid-induced lipid peroxidation of membrane lipids by measuring malondialdehyde level after 90 mins by spectrophotometry; type: functional, Microsome; conditions: 1.5 h
[5] = Antioxidant activity assessed as DPPH radical scavenging activity measured for each 5 mins for 3 hrs; type: functional
[6] = Antioxidant activity assessed as superoxide anion scavenging activity at pH 7.4 phosphate buffer incubated for 5 mins by NBT assay; type: functional
Lichtheimia corymbifera [7] = experiment: Antifungal activity against Absidia corymbifera 272 assessed as reduction in fungal cell viability measured after 24 and 72 hrs by photometry; type: functional
Pichia kudriavzevii = experiment: Antifungal activity against Candida krusei E28 assessed as reduction in fungal cell viability measured after 24 and 48 hrs by photometry; type: functional
Aspergillus fumigatus [8] = experiment: Antifungal activity against Aspergillus fumigatus assessed as reduction in fungal cell viability by broth dilution method; type: functional
Aspergillus fumigatus [9] = experiment: Antifungal activity against Aspergillus fumigatus 231 assessed as reduction in fungal cell viability measured after 24 and 72 hrs by photometry; type: functional
Candida tropicalis = experiment: Antifungal activity against Candida tropicalis 156 assessed as reduction in fungal cell viability measured after 24 and 72 hrs by photometry; type: functional
[10] = system: Trichophyton mentagrophytes; experiment: Antifungal activity against Trichophyton mentagrophytes 445 assessed as reduction in fungal cell viability measured after 72 and 120 hrs by photometry; type: functional
Nakaseomyces glabratus = experiment: Antifungal activity against Candida glabrata 20/I assessed as reduction in fungal cell viability measured after 24 and 72 hrs by photometry; type: functional
Candida albicans [11] = experiment: Antifungal activity against Candida albicans ATCC 44859 assessed as reduction in fungal cell viability measured after 24 and 48 hrs by photometry; type: functional
Lichtheimia corymbifera [12] = experiment: Antifungal activity against Absidia corymbifera assessed as reduction in fungal cell viability by broth dilution method; type: functional
Trichosporon beigelii = experiment: Antifungal activity against Trichosporon beigelii 1188 assessed as reduction in fungal cell viability measured after 24 and 72 hrs by photometry; type: functional
Mus musculus = experiment: Analgesic activity in albino mouse assessed as inhibition of acetic acid induced writhing at 10 mg/kg , po; type: functional
Rattus norvegicus [13] = experiment: Antiinflammatory activity in rat assessed as inhibition of carrageenan-induced paw edema at 10 mg/kg , po and measured after 4 hrs of carrageenan addition relative to control; type: functional
Rattus norvegicus [14] = organism: Rattus norvegicus; experiment: Antiarthritic activity in adjuvant-induced Sprague-Dawley rat; type: functional
Rattus norvegicus [15] = experiment: Antiinflammatory activity in Sprague-Dawley rat assessed as inhibition of carrageenan-induced paw edema at 3 mg/kg , po relative to control; type: functional
[16] = Ulcerogenicity in Sprague-Dawley rat assessed as gastric lesions at 50 mg/kg , po bid measured after 4 hrs; type: toxicity, organism-based; conditions: in vivo
Rattus norvegicus [17] = experiment: Antiinflammatory activity in Sprague-Dawley rat assessed as inhibition of carrageenan-induced paw edema at 3 mg/kg , po incubated for 1 hr followed by carrageenan addition and measured after 4 hrs relative to control; type: functional
[18] = target: Prostaglandin G/H synthase 2 (Mus musculus, UniProt Q05769); experiment: Inhibition of mouse COX-2 in LPS-induced mouse peritoneal macrophage assessed as reduction in PGE2 release incubated for 2 hrs by ELISA
Sequence of Prostaglandin G/H synthase 2 (Q05769 whole entry): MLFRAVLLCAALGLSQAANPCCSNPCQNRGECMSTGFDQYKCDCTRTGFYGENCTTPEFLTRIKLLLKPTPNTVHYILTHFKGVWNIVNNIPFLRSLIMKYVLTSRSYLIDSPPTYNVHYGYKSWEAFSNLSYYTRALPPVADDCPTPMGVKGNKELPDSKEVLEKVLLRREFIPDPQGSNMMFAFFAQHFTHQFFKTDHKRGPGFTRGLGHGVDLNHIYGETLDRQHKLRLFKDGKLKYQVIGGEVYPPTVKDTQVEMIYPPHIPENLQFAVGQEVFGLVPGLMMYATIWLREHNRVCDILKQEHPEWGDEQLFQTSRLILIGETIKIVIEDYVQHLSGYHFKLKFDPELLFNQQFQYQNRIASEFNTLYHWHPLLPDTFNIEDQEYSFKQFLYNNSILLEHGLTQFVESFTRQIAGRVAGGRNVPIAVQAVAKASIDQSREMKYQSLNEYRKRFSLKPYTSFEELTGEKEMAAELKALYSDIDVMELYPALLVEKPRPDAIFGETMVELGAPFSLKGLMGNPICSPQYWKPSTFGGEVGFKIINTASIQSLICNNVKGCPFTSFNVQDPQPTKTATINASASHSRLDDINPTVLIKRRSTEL

Pyricularia oryzae = experiment: Antifungal activity against Pyricularia oryzae CGMCC 3.3283 assessed as reduction in fungal cell growth incubated for 24 hrs by broth dilution method; type: functional; conditions: CGMCC 3.3283, 24 h
Fusarium graminearum = experiment: Antifungal activity against Gibberella zeae CGMCC 3.2873 assessed as reduction in fungal cell growth incubated for 24 hrs by broth dilution method; type: functional; conditions: CGMCC 3.2873, 24 h
Fusarium oxysporum = experiment: Antifungal activity against Fusarium oxysporum CGMCC 3.2830 assessed as reduction in fungal cell growth incubated for 24 hrs by broth dilution method; type: functional; conditions: CGMCC 3.2830, 24 h
Scedosporium boydii = experiment: Antifungal activity against Pseudallescheria boydii BMU04772 assessed as reduction in fungal cell growth incubated for 24 hrs by broth dilution method; type: functional; conditions: BMU04772, 24 h
[19] = Cytotoxicity against dog MDCK cells assessed as reduction in cell viability incubated for 24 hrs by MTT assay; type: cell-based, Canis lupus familiaris; conditions: read-out: LD50
H5N1 subtype = experiment: Antiviral activity against H5N1 virus infected in MDCK cells assessed as virus-induced cytopathogenicity infected for 2 hrs followed by virus washout and incubated for 3 days; type: functional, organism-based; conditions: Influenza A virus
Tyrosinase = Tyrosinase (Homo sapiens, UniProt P14679); experiment: Inhibition of tyrosinase (unknown origin) assessed as reduction in melanin formation
Sequence of Tyrosinase (P14679 whole entry): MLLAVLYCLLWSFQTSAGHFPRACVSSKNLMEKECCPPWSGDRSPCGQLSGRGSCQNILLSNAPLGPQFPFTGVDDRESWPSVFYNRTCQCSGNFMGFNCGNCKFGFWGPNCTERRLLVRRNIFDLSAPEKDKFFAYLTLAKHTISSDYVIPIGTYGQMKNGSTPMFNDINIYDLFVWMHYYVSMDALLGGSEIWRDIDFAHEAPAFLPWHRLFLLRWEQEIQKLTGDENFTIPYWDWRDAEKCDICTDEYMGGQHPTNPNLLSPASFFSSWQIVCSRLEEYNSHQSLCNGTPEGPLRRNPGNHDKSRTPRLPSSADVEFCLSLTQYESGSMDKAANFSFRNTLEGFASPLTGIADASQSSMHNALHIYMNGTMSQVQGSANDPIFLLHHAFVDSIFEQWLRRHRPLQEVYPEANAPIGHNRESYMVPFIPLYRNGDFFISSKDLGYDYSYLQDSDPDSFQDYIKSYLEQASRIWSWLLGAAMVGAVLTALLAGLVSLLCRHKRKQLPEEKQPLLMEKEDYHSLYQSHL

L1210 = experiment: Antiproliferative activity against mouse L1210 cells assessed as reduction in cell viability incubated for 48 hrs by coulter counter method; type: functional, cell-based; conditions: L1210, 48 h
MT4 = experiment: Antiproliferative activity against human MT4 cells assessed as reduction in cell viability; type: functional, cell-based
MOLT-4F = experiment: Antiproliferative activity against human MOLT4F cells assessed as reduction in cell viability incubated for 72 hrs by coulter counter method; type: functional, cell-based
CCRF-CEM = experiment: Antiproliferative activity against human CEM cells assessed as reduction in cell viability incubated for 48 hrs by coulter counter method; type: functional, cell-based

For O=C1OC(c2ccccc2)=C/C1=C/c1ccc([N+](=O)[O-])cc1, the “growth inhibition (GI)” value (Candida albicans [1]) was 66%.

Work on COc1ccc(/C=C2/C=C(c3ccc(Br)cc3)OC2=O)cc1OC yielded an IC50 [2] of 26.8 µg/mL (≈ 69.1 µM).

For O=C1OC(c2ccccc2)C(Cl)=C1Cl (stereo unspecified), the IC50 (MAC16 [3]) was 50 µM, the IC50 (MAC13) was 50 µM and the “inhibition (INH)” value (MAC16 [4]) was 24%.

O=C1OC(c2cccc(O)c2O)C(c2ccccc2)=C1O (stereo unspecified) showed an IC50 (Liver) of 129 µM, an IC50 [5] of 10.3 µM and an IC50 [6] of 187 µM.

CC1C=C(c2ccc(Cl)c(Cl)c2)C(=O)O1 (stereo unspecified) showed an MIC (Lichtheimia corymbifera [7]) of 7.81 µM (≈ 1.9 µg/mL), an MIC (Pichia kudriavzevii) of over 125 µM and an MIC (Aspergillus fumigatus [8]) of 7.6 µg/mL (≈ 31.3 µM). For the same compound, the MIC (Aspergillus fumigatus [9]) was 7.87 µM (≈ 1.91 µg/mL), the MIC (Candida tropicalis) was over 125 µM and the MIC [10] was 31.2 µM (≈ 7.6 µg/mL). It also gave an MIC (Nakaseomyces glabratus) of over 125 µM, an MIC (Candida albicans [11]) of 31.2 µM (≈ 7.6 µg/mL) and an MIC (Lichtheimia corymbifera [12]) of 7.6 µg/mL (≈ 31.3 µM). For the same compound, the MIC (Trichosporon beigelii) was 31.2 µM (≈ 7.6 µg/mL).

O=C(O)Cc1ccccc1Nc1c(Cl)cccc1Cl [DICLOFENAC] gave an inhibition in vivo at 10 mg/kg (Mus musculus) of 67.7% and an inhibition in vivo at 10 mg/kg (Rattus norvegicus [13]) of 78.6%.

For CC1(C)OC(c2ccc(S(C)(=O)=O)cc2)=C(c2cccc(F)c2)C1=O, the ED50 (Rattus norvegicus [14]) was 0.008 mg/kg/day, the inhibition in vivo at 3 mg/kg (Rattus norvegicus [15]) was 36% and the UI [16] was 1.5. For the same compound, the inhibition in vivo at 3 mg/kg (Rattus norvegicus [17]) was 47% and the IC50 [18] was 0.00832 µM.

In the case of COC(=O)C[C@]1(O)OC(=O)C(C)=C1C, the MIC (Pyricularia oryzae) is reported as 1.25 µg/mL (≈ 6.24 µM), the MIC (Fusarium graminearum) is reported as 2 µg/mL (≈ 9.99 µM) and the MIC (Fusarium oxysporum) is reported as 2.5 µg/mL (≈ 12.5 µM). For the same compound, the MIC (Scedosporium boydii) was 0.15 µg/mL (≈ 0.749 µM).

Compound O=C1OC(c2ccccc2)=C/C1=N/Nc1ccc(Br)cc1 has a CC50 at 24 h [19] of under 100 µg/mL and an EC50 (H5N1 subtype) of under 100 µg/mL.

Work on CC1=C(O)C(=O)CO1 yielded an IC50 (Tyrosinase) of 50 µM.

Work on C/C(=C\c1occ2cc3oc(=O)ccc3cc12)C1=CC(=O)C(C)(C)O1 yielded an IC50 (L1210) of 40 to 79 µM, an IC50 (MT4) of 40 to 79 µM and an IC50 (MOLT-4F) of 40 to 79 µM. It also gave an IC50 (CCRF-CEM) of 40 to 79 µM.
